Source: ChEMBL document CHEMBL3751798, “Targeting cancer cells with oleanolic and ursolic acid derived hydroxamates” (Bioorg Med Chem Lett, 2016)
pEC50: −log10 of the molar value.

Tests used:
[1] = Cytotoxicity against human 518A2 cells after 96 hrs by SRB assay; type: functional, cell-based; details: 518A2, 96 h
A2780 = test: Cytotoxicity against human A2780 cells after 96 hrs by SRB assay; type: functional, cell-based; details: A2780, 96 h
A549 = test: Cytotoxicity against human A549 cells after 96 hrs by SRB assay; type: functional, cell-based; details: A549, 96 h
FaDu = test: Cytotoxicity against human FADU cells after 96 hrs by SRB assay; type: functional, cell-based
HT-29 = test: Cytotoxicity against human HT-29 cells after 96 hrs by SRB assay; type: functional, cell-based; details: HT-29, 96 h
MCF7 = test: Cytotoxicity against human MCF7 cells after 96 hrs by SRB assay; type: functional, cell-based; details: MCF7, 96 h
[2] = Cytotoxicity against mouse NIH/3T3 cells after 96 hrs by SRB assay; type: cell-based; details: NIH3T3, 96 h

Row | Compound | pEC50 [1] | pEC50 (A2780) | pEC50 (A549) | pEC50 (FaDu) | pEC50 (HT-29) | pEC50 (MCF7) | pEC50 [2]
1 | CONC(=O)[C@]12CC[C@@H](C)[C@H](C)[C@H]1C1=CC[C@@H]3[C@@]4(C)CCC(=O)C(C)(C)[C@@H]4CC[C@@]3(C)[C@]1(C)CC2 | 4.89 | 4.84 | 5.04 | 4.92 | 4.89 | 4.95 | 4.84
2 | CON(C)C(=O)[C@]12CCC(C)(C)C[C@H]1C1=CC[C@@H]3[C@@]4(C)CC[C@H](OC(C)=O)C(C)(C)[C@@H]4CC[C@@]3(C)[C@]1(C)CC2 | 5.08 | 5.17 | 4.75 | 5.03 | 4.88 | 5.12 | 4.88
3 | CC(=O)O[C@H]1CC[C@]2(C)[C@H]3CC=C4[C@@H]5[C@@H](C)[C@H](C)CC[C@]5(C(=O)N(C)O)CC[C@@]4(C)[C@]3(C)CC[C@H]2C1(C)C | 5.08 | 5.19 | 5.24 | 4.95 | 5.06 | 5.10 | 5.18
4 | C=C(C)[C@@H]1CC[C@]2(C(=O)O)CC[C@]3(C)[C@H](CC[C@@H]4[C@@]5(C)CC[C@H](O)C(C)(C)[C@@H]5CC[C@]43C)[C@@H]12 [BETULINIC ACID] | 5.03 |  |  | 4.82 | 4.84 |  | 
5 | CON(C)C(=O)[C@]12CC[C@@H](C)[C@H](C)[C@H]1C1=CC[C@@H]3[C@@]4(C)CC[C@H](O)C(C)(C)[C@@H]4CC[C@@]3(C)[C@]1(C)CC2 | 4.64 | 4.66 | 4.94 | 4.57 | 4.74 | 4.73 | 4.63
6 | C[C@H]1[C@H](C)CC[C@]2(C(=O)O)CC[C@]3(C)C(=CC[C@@H]4[C@@]5(C)CC[C@H](O)C(C)(C)[C@@H]5CC[C@]43C)[C@H]12 [URSOLIC ACID] |  | 4.93 |  | 4.85 |  |  | 4.73
7 | CN(O)C(=O)[C@]12CCC(C)(C)C[C@H]1C1=CC[C@@H]3[C@@]4(C)CC[C@H](O)C(C)(C)[C@@H]4CC[C@@]3(C)[C@]1(C)CC2 | 4.94 | 5.41 | 5.01 | 5.24 | 5.06 | 5.08 | 4.95
8 | CONC(=O)[C@]12CC[C@@H](C)[C@H](C)[C@H]1C1=CC[C@@H]3[C@@]4(C)CC[C@H](O)C(C)(C)[C@@H]4CC[C@@]3(C)[C@]1(C)CC2 | 4.84 | 4.92 | 5.08 | 4.95 | 4.81 | 5.00 | 4.79
9 | CONC(=O)[C@]12CC[C@@H](C)[C@H](C)[C@H]1C1=CC[C@@H]3[C@@]4(C)CC[C@H](OC(C)=O)C(C)(C)[C@@H]4CC[C@@]3(C)[C@]1(C)CC2 | 4.81 | 4.97 | 5.18 | 4.92 | 4.88 | 5.17 | 4.83
10 | CC(=O)O[C@H]1CC[C@]2(C)[C@H]3CC=C4[C@@H]5CC(C)(C)CC[C@]5(C(=O)N(C)O)CC[C@@]4(C)[C@]3(C)CC[C@H]2C1(C)C | 5.03 | 5.12 | 4.97 | 4.92 | 4.97 | 5.21 | 4.91
11 | C[C@H]1[C@H](C)CC[C@]2(C(=O)NO)CC[C@]3(C)C(=CC[C@@H]4[C@@]5(C)CC[C@H](O)C(C)(C)[C@@H]5CC[C@]43C)[C@H]12 | 5.03 | 5.34 | 5.17 | 4.74 | 5.12 | 4.88 | 5.26
12 | CON(C)C(=O)[C@]12CC[C@@H](C)[C@H](C)[C@H]1C1=CC[C@@H]3[C@@]4(C)CC[C@H](OC(C)=O)C(C)(C)[C@@H]4CC[C@@]3(C)[C@]1(C)CC2 | 4.90 | 5.01 | 5.02 | 4.82 | 4.75 | 4.81 | 4.64
13 | CON(C)C(=O)[C@]12CC[C@@H](C)[C@H](C)[C@H]1C1=CC[C@@H]3[C@@]4(C)CCC(=O)C(C)(C)[C@@H]4CC[C@@]3(C)[C@]1(C)CC2 | 4.81 | 5.35 | 5.06 | 5.08 | 4.73 | 4.97 | 4.73
14 | CONC(=O)[C@]12CCC(C)(C)C[C@H]1C1=CC[C@@H]3[C@@]4(C)CC[C@H](O)C(C)(C)[C@@H]4CC[C@@]3(C)[C@]1(C)CC2 | 4.89 | 4.91 | 4.68 | 4.84 | 4.73 | 4.77 | 4.74
15 | CC1(C)CC[C@]2(C(=O)NO)CC[C@]3(C)C(=CC[C@@H]4[C@@]5(C)CC[C@H](O)C(C)(C)[C@@H]5CC[C@]43C)[C@@H]2C1 | 5.26 | 5.47 | 5.33 | 5.09 | 5.33 | 5.09 | 5.37
16 | C[C@H]1[C@H](C)CC[C@]2(C(=O)N(C)O)CC[C@]3(C)C(=CC[C@@H]4[C@@]5(C)CCC(=O)C(C)(C)[C@@H]5CC[C@]43C)[C@H]12 | 4.91 | 5.40 | 5.03 | 4.75 | 4.89 | 4.75 | 4.98
17 | CC(=O)O[C@H]1CC[C@]2(C)[C@H]3CC=C4[C@@H]5[C@@H](C)[C@H](C)CC[C@]5(C(=O)NO)CC[C@@]4(C)[C@]3(C)CC[C@H]2C1(C)C | 5.44 | 5.57 | 5.41 | 5.19 | 5.46 | 5.48 | 5.60
18 | CON(C)C(=O)[C@]12CCC(C)(C)C[C@H]1C1=CC[C@@H]3[C@@]4(C)CC[C@H](O)C(C)(C)[C@@H]4CC[C@@]3(C)[C@]1(C)CC2 | 5.48 | 5.47 | 4.93 | 4.53 | 5.25 | 4.79 | 4.69
19 | CC1(C)CC[C@]2(C(=O)O)CC[C@]3(C)C(=CC[C@@H]4[C@@]5(C)CC[C@H](O)C(C)(C)[C@@H]5CC[C@]43C)[C@@H]2C1 [OLEANOLIC_ACID] | 4.19 | 4.85 | 4.14 | 4.12 | 4.41 | 4.10 | 4.12
20 | CON(C)C(=O)[C@]12CCC(C)(C)C[C@H]1C1=CC[C@@H]3[C@@]4(C)CCC(=O)C(C)(C)[C@@H]4CC[C@@]3(C)[C@]1(C)CC2 | 4.68 | 5.06 | 5.25 | 4.61 | 4.81 | 4.79 | 4.86
21 | CONC(=O)[C@]12CCC(C)(C)C[C@H]1C1=CC[C@@H]3[C@@]4(C)CC[C@H](OC(C)=O)C(C)(C)[C@@H]4CC[C@@]3(C)[C@]1(C)CC2 | 4.85 | 4.97 | 4.73 | 4.91 | 4.76 | 5.04 | 4.88
22 | CONC(=O)[C@]12CCC(C)(C)C[C@H]1C1=CC[C@@H]3[C@@]4(C)CCC(=O)C(C)(C)[C@@H]4CC[C@@]3(C)[C@]1(C)CC2 | 4.75 | 5.21 | 5.32 | 4.64 | 4.73 | 4.70 | 4.91
23 | C[C@H]1[C@H](C)CC[C@]2(C(=O)N(C)O)CC[C@]3(C)C(=CC[C@@H]4[C@@]5(C)CC[C@H](O)C(C)(C)[C@@H]5CC[C@]43C)[C@H]12 | 4.90 | 5.35 | 5.01 | 4.82 | 4.91 | 4.81 | 5.00
24 | CC(=O)O[C@H]1CC[C@]2(C)[C@H]3CC=C4[C@@H]5CC(C)(C)CC[C@]5(C(=O)NO)CC[C@@]4(C)[C@]3(C)CC[C@H]2C1(C)C | 5.38 | 5.59 | 5.51 | 4.97 | 5.31 | 5.02 | 5.59
25 | CN(O)C(=O)[C@]12CCC(C)(C)C[C@H]1C1=CC[C@@H]3[C@@]4(C)CCC(=O)C(C)(C)[C@@H]4CC[C@@]3(C)[C@]1(C)CC2 | 4.89 | 5.32 | 5.09 | 4.85 | 4.92 | 4.79 | 5.04
